Results published in patent US20220241249A1, “PHARMACEUTICAL COMPOSITION AND KIT CONTAINING NOVEL PENAM DERIVATIVE OR SALT THEREOF AND ONE OR MORE COMPOUNDS SELECTED FROM beta-LACTAMASE INHIBITORY COMPOUND AND ANTIBACTERIAL COMPOUND OR SALTS THEREOF” (priority 2019, published 2022).
≈ marks a conversion by molar mass, not a printed value. Read-outs that look alike come from different tables or passages of the source.

Tests used:
Experiment in all cases: Antibacterial activity evaluation test, MIC by broth microdilution (CLSI)
Type in all cases: cell-based
[1] = tested on: IMP-1-containing Pseudomonas aeruginosa strain (S-2838)
Experimental: (§1) The minimum inhibitory concentration (MIC) was measured according to the Clinical and Laboratory Standards Institute (CLSI) standard method by using the following broth microdilution method.
(§2) As bacteria, a Pseudomonas aeruginosa strain ATCC27853, an AmpC-derepressed Pseudomonas aeruginosa mutant strain (S-3028), an IMP-1-containing Pseudomonas aeruginosa strain (S-2838), a VIM-2-containing Pseudomonas aeruginosa strain (S-3779), a GES-19 and GES-20-containing Pseudomonas aeruginosa strain (S-3759), a CTX-M-15-containing Escherichia coli strain (TK-1747), a KPC-2-containing Klebsiella pneumoniae strain (Y-995), an OXA-48-containing Klebsiella pneumoniae strain (Y-1062), and an NDM-1-containing Klebsiella pneumoniae strain (Y-1007) were used. The test bacterial cells that had been cultured overnight on a Mueller Hinton agar medium were scraped off, suspended at a density equivalent to 0.5 McFarland standard, and diluted 10-fold, thereby obtaining an inoculum. A cation-adjusted Mueller Hinton medium containing a test compound was inoculated with 0.005 mL of the inoculum, and the cells were cultured at 35° C. for 16 to 20 hours. The minimum drug concentration at which the growth of bacteria was not visually observed was defined as MIC (μg/mL).
(§3) An antibacterial activity evaluation test was performed in the same manner as in Test Example 1.

[2] = tested on: VIM-2-containing Pseudomonas aeruginosa strain (S-3779)
Experimental: as §1, §2, §3

[3] = tested on: KPC-2-containing Klebsiella pneumoniae strain (Y-995)
Experimental: as §1, §2, §3

[4] = tested on: GES-19 and GES-20-containing Pseudomonas aeruginosa strain (S-3759)
Experimental: as §1, §2, §3

[5] = tested on: AmpC-derepressed Pseudomonas aeruginosa mutant strain (S-3028)
Experimental: as §1, §2, §3

[6] = tested on: CTX-M-15-containing Escherichia coli strain (TK-1747)
Experimental: as §1, §2, §3

[7] = tested on: Pseudomonas aeruginosa strain ATCC27853
Experimental: as §1, §2, §3

[8] = tested on: NDM-1-containing Klebsiella pneumoniae strain (Y-1007)
Experimental: as §1, §2, §3

[9] = tested on: OXA-48-containing Klebsiella pneumoniae strain (Y-1062)
Experimental: as §1, §2, §3

[10] = Pseudomonas aeruginosa, ATCC27853

In the case of `Nc1nc(/C(=N/OC2(C(=O)O)CC2)C(=O)N[C@@H]2C(=O)N3C[C@@](C(=O)O)(N4CCN(NC(=O)CCNC(=O)C(=O)c5ccc(O)c(O)c5Cl)C4=O)S[C@H]23)c(Cl)s1` [Example 107, (3R,5R,6R)-6-((Z)-2-(2-amino-5-chlorothia-zol-4-yl)-2-((1-carboxy-cyclopropoxy)imino)-acetamido)-3-(3-(3-(2-(2-chloro-3,4-dihydroxy-phenyl)-2-oxoaceta-mido)proanamido)-2-oxoimidazolidin-1-yl)-7-oxo-4-thia-1-aza-bicyclo[3.2.0]heptane-3-carboxylic acid], the MIC ([1]; Pseudomonas aeruginosa S-2838, 35° C., 16 to 20 hours) is reported as 0.5 µg/mL (≈ 0.592 µM), the MIC ([2]; Pseudomonas aeruginosa S-3779, 35° C., 16 to 20 hours) is reported as 0.25 µg/mL (≈ 0.296 µM) and the MIC ([3]; Klebsiella pneumoniae Y-995, 35° C., 16 to 20 hours) is reported as 2 µg/mL (≈ 2.37 µM). For the same compound, the MIC ([4]; Pseudomonas aeruginosa S-3759, 35° C., 16 to 20 hours) was 0.5 µg/mL (≈ 0.592 µM), the MIC ([5]; Pseudomonas aeruginosa S-3028, 35° C., 16 to 20 hours) was 2 µg/mL (≈ 2.37 µM) and the MIC ([6]; Escherichia coli TK-1747, 35° C., 16 to 20 hours) was 0.25 µg/mL (≈ 0.296 µM). The MIC ([7]; Pseudomonas aeruginosa ATCC 27853, 35° C., 16 to 20 hours) was 0.25 µg/mL (≈ 0.296 µM), the MIC ([8]; Klebsiella pneumoniae Y-1007, 35° C., 16 to 20 hours) was <0.06 µg/mL and the MIC ([9]; Klebsiella pneumoniae Y-1062, 35° C., 16 to 20 hours) was 0.25 µg/mL (≈ 0.296 µM).

For `CC(C)(O/N=C(\C(=O)N[C@@H]1C(=O)N2C[C@@](C(=O)O)(N3CC[C@@H](NC(=O)C(=O)c4ccc(O)c(O)c4Cl)C3=O)S[C@H]12)c1csc(N)n1)C(=O)O` [Example 85, (3R,5R,6R)-6-((Z)-2-(2-aminothiazol-4-yl)-2-(((2-carboxypropan-2-yl)oxy)imino)acetamido)-3-((R)-3-(2-(2-chloro-3,4-dihydroxyphenyl)-2-oxoacetamido)-2-oxopyrrolidin-1-yl)-7-oxo-4-thia-1-azabicyclo[3.2.0]heptane-3-carboxylic acid], the MIC ([1]; Pseudomonas aeruginosa) was 0.25 µg/mL (≈ 0.338 µM), the MIC ([2]; Pseudomonas aeruginosa) was 0.25 µg/mL (≈ 0.338 µM) and the MIC ([3]; Klebsiella pneumoniae) was < 0.06 µg/mL. For the same compound, the MIC ([4]; Pseudomonas aeruginosa) was 0.25 µg/mL (≈ 0.338 µM), the MIC ([5]; Pseudomonas aeruginosa) was 0.12 µg/mL (≈ 0.162 µM) and the MIC ([6]; Escherichia coli) was < 0.06 µg/mL. The MIC [7, 10] was 0.5 µg/mL (≈ 0.676 µM), the MIC ([8]; Klebsiella pneumoniae) was < 0.06 µg/mL and the MIC ([9]; Klebsiella pneumoniae) was 0.12 µg/mL (≈ 0.162 µM).

For `CC(C)(O/N=C(\C(=O)N[C@@H]1C(=O)N2C[C@@](C(=O)O)(N3CCN(NC(=O)CCNC(=O)C(=O)c4ccc(O)c(O)c4Cl)C3=O)S[C@H]12)c1csc(N)n1)C(=O)O` [Example 30, (3R,5R,6R)-6-((Z)-2-(2-aminothiazol-4-yl)-2-(((2-carboxypropan-2-yl)oxy)imino)acetamido)-3-(3-(3-(2-(2-chloro-3,4-dihydroxyphenyl)-2-oxoacetamido)propanamido)-2-oxoimidazolidin-1-yl)-7-oxo-4-thia-1-azabicyclo[3.2.0]heptane-3-carboxylic acid], the MIC ([1]; Pseudomonas aeruginosa) was 0.5 µg/mL (≈ 0.616 µM), the MIC ([2]; Pseudomonas aeruginosa) was 0.5 µg/mL (≈ 0.616 µM) and the MIC ([3]; Klebsiella pneumoniae) was 0.25 µg/mL (≈ 0.308 µM). The MIC ([4]; Pseudomonas aeruginosa) was 0.5 µg/mL (≈ 0.616 µM), the MIC ([5]; Pseudomonas aeruginosa) was < 0.06 µg/mL and the MIC ([6]; Escherichia coli) was 0.25 µg/mL (≈ 0.308 µM). For the same compound, the MIC [7, 10] was 0.25 µg/mL (≈ 0.308 µM), the MIC ([8]; Klebsiella pneumoniae) was < 0.06 µg/mL and the MIC ([9]; Klebsiella pneumoniae) was 0.5 µg/mL (≈ 0.616 µM).

`CC(C)(O/N=C(\C(=O)N[C@@H]1C(=O)N2C[C@@](C(=O)O)(N3CC(=O)N(NC(=O)C(=O)c4ccc(O)c(O)c4Cl)CC3=O)S[C@H]12)c1csc(N)n1)C(=O)O` [Example 82, (3R,5R,6R)-6-((Z)-2-(2-aminothiazol-4-yl)-2-(((2-carboxypropan-2-yl)oxy)imino)acetamido)-3-(4-(2-(2-chloro-3,4-dihydroxyphenyl)-2-oxoacetamido)-2,5-dioxopiperazin-1-yl)-7-oxo-4-thia-1-azabicyclo[3.2.0]heptane-3-carboxylic acid] showed an MIC ([1]; Pseudomonas aeruginosa) of 4 µg/mL (≈ 5.2 µM), an MIC ([2]; Pseudomonas aeruginosa) of 1 µg/mL (≈ 1.3 µM) and an MIC ([3]; Klebsiella pneumoniae) of 4 µg/mL (≈ 5.2 µM). For the same compound, the MIC ([4]; Pseudomonas aeruginosa) was 2 µg/mL (≈ 2.6 µM), the MIC ([5]; Pseudomonas aeruginosa) was 4 µg/mL (≈ 5.2 µM) and the MIC ([6]; Escherichia coli) was 1 µg/mL (≈ 1.3 µM). For the same compound, the MIC [7, 10] was 0.5 µg/mL (≈ 0.65 µM), the MIC ([8]; Klebsiella pneumoniae) was 0.5 µg/mL (≈ 0.65 µM) and the MIC ([9]; Klebsiella pneumoniae) was 2 µg/mL (≈ 2.6 µM).

With `CC(C)(O/N=C(\C(=O)N[C@@H]1C(=O)N2C[C@@](C(=O)O)(N3CCN(NC(=O)C(=O)NCCNC(=O)c4ccc(O)c(O)c4Cl)C3=O)S[C@H]12)c1csc(N)n1)C(=O)O` [Example 68, (3R,5R,6R)-6-((Z)-2-(2-aminothiazol-4-yl)-2-(((2-carboxypropan-2-yl)oxy)imino)acetamido)-3-(3-(2-((2-(2-chloro-3,4-dihydroxybenzamido)ethyl)amino)-2-oxoacetamido)-2-oxoimidazolidin-1-yl)-7-oxo-4-thia-1-azabicyclo[3.2.0]heptane-3-carboxylic acid] the MIC ([1]; Pseudomonas aeruginosa) was 1 µg/mL (≈ 1.21 µM), the MIC ([2]; Pseudomonas aeruginosa) was 2 µg/mL (≈ 2.42 µM) and the MIC ([3]; Klebsiella pneumoniae) was 0.5 µg/mL (≈ 0.604 µM). For the same compound, the MIC ([4]; Pseudomonas aeruginosa) was 4 µg/mL (≈ 4.84 µM), the MIC ([5]; Pseudomonas aeruginosa) was 0.25 µg/mL (≈ 0.302 µM) and the MIC ([6]; Escherichia coli) was 1 µg/mL (≈ 1.21 µM). The MIC ([7]; ATCC27853, Pseudomonas aeruginosa ATCC 27853, 35° C., 16 to 20 hours, read-out: MIC) was 1 µg/mL (≈ 1.21 µM), the MIC ([8]; Klebsiella pneumoniae) was < 0.06 µg/mL and the MIC ([9]; Klebsiella pneumoniae) was 1 µg/mL (≈ 1.21 µM).
